Measured values: US10111890B2, “9-aminomethyl minocycline compounds and uses thereof” (Paratek Pharmaceuticals, Inc., priority 2016, dated 2018)

Columns and labels:
[1] = Phase 3 oral omadacycline vs oral linezolid in ABSSSI: safety (adverse events, TEAEs, vital signs, ECG, laboratory); assay type: in vivo; details: safety population; most frequent (≥2%) TEAEs table
Source text: An Adverse Event (AE) is any untoward, undesired, or unplanned event in the form of signs, symptoms, disease, or laboratory or physiologic observations occurring in a person given a test article or in a clinical study. […] An AE includes, but is not limited to, the following: any clinically significant worsening of a preexisting condition; an AE occurring from overdose of a test article, whether accidental or intentional; overdose is a dose greater than that specified in the protocol; an AE occurring from abuse (e.g., use for nonclinical reasons) of a test article; and an AE that has been associated with the discontinuation of the use of a test article.
The severity (or intensity) of an AE was classified using the following criteria:
Concerning relatedness, causality (i.e., whether there was a reasonable possibility that test article caused the event) for all AEs and SAEs was assessed.
Safety variables include the incidence rate of AEs, change in vital signs, ECG parameters and laboratory test results obtained during the course of the study. For safety analyses, subjects were analyzed according to the treatment actually received.
Summary tables were provided for all treatment-emergent adverse events (TEAEs). A TEAE is defined as an AE with a start date and time on or after the first dose of test article. […] Additional tabulations provide summaries by SOC and PT of subjects experiencing SAEs, severe TEAEs, TEAEs judged to be related to test article, TEAEs leading to discontinuation of test article, and TEAEs of special interest.
The following variables were analyzed descriptively: Vital signs (systolic and diastolic BP, pulse rate, body temperature, respiratory rate), including change from Screening by visit; Clinically notable vital signs (meeting predefined criteria as specified in the SAP) by visit. Subjects with notable vital signs data were listed.
ECG data (RR interval, PR interval, QRS interval, QTc, QTc Bazett's Correction Formula [QTcB], and QTc Fridericia's Correction Formula [QTcF]) was summarized descriptively at each scheduled evaluation, and for the overall worst post-Screening value. Changes from Screening at each visit that a 12-lead ECG was obtained was also provided. An outlier analysis was conducted based on the worst post-Screening value.
The following variables were analyzed descriptively: Laboratory variables by visit; Change from Screening of laboratory variables by visit; and Clinically notable laboratory values (meeting predefined criteria specified in the SAP) by visit.

[2] = tested on: ABSSSI known or suspected to be due to Gram-positive pathogens; test: Phase 3 oral omadacycline vs oral linezolid in ABSSSI: Investigator's Assessment of Clinical Response at PTE; assay type: in vivo, human; details: for Overall Clinical Success at PTE, %: micro-mITT, % of N1; for Difference (95% CI) in Overall Clinical Success rate at PTE: omadacycline minus linezolid
[3] = Cellulitis/erysipelas, actual type, mITT
[4] = Cellulitis/erysipelas, as randomized, mITT
[5] = Major Abscess, actual type, mITT
[6] = Major Abscess, as randomized, mITT
[7] = Wound Infection, actual type, mITT
[8] = Wound Infection, as randomized, mITT

In the case of CN(C)c1cc(CNCC(C)(C)C)c(O)c2c1C[C@H]1C[C@H]3[C@H](N(C)C)C(O)=C(C(N)=O)C(=O)[C@@]3(O)C(O)=C1C2=O [Omadacycline, 9-[(2,2-dimethyl-propylamino)-methyl]-minocycline], the “Subjects with at Least One TEAE” value [1] is reported as 197 (53.5) n (%), the “Difference in Overall Clinical Success rate at PTE, omadacycline minus linezolid” value ([2]; CE-PTE) is reported as 2.3% and the “Overall clinical response at PTE: Clinical Success” value ([2]; Cellulitis/erysipelas, actual type of infection, investigator assessment, mITT) is reported as 76 (88.4) n (%). For the same molecule, the “Overall clinical response at PTE: Clinical Failure” value [2, 3] was 2 (2.3) n (%), the “Overall clinical response at PTE: Clinical Failure or Indeterminate” value [2, 3] was 10 (11.6) n (%) and the “Overall clinical response at PTE: Indeterminate” value [2, 3] was 8 (9.3) n (%). For the same molecule, the “Overall clinical response at PTE: Clinical Failure” value [2, 4] was 2 (2.4) n (%), the “Overall clinical response at PTE: Clinical Failure or Indeterminate” value [2, 4] was 10 (12.2) n (%) and the “Overall clinical response at PTE: Indeterminate” value [2, 4] was 8 (9.8) n (%). For the same molecule, the “Overall clinical response at PTE: Clinical Success” value ([2]; Cellulitis/erysipelas, type of infection as randomized, investigator assessment, mITT) was 72 (87.8) n (%), the “Overall clinical response at PTE: Clinical Success” value ([2]; Major Abscess, actual type of infection, investigator assessment, mITT) was 54 (84.4) n (%) and the “Overall clinical response at PTE: Clinical Failure” value [2, 5] was 2 (3.1) n (%). For the same molecule, the “Overall clinical response at PTE: Clinical Failure or Indeterminate” value [2, 5] was 10 (15.6) n (%), the “Overall clinical response at PTE: Indeterminate” value [2, 5] was 8 (12.5) n (%) and the “Overall clinical response at PTE: Clinical Failure” value [2, 6] was 2 (3.1) n (%). The “Overall clinical response at PTE: Clinical Failure or Indeterminate” value [2, 6] was 10 (15.6) n (%), the “Overall clinical response at PTE: Indeterminate” value [2, 6] was 8 (12.5) n (%) and the “Overall clinical response at PTE: Clinical Success” value ([2]; Major Abscess, type of infection as randomized, investigator assessment, mITT) was 54 (84.4) n (%). The “Overall clinical response at PTE: Clinical Success” value ([2]; Wound Infection, actual type of infection, investigator assessment, mITT) was 173 (82.4) n (%), the “Overall clinical response at PTE: Clinical Failure” value [2, 7] was 8 (3.8) n (%) and the “Overall clinical response at PTE: Clinical Failure or Indeterminate” value [2, 7] was 37 (17.6) n (%). The “Overall clinical response at PTE: Indeterminate” value [2, 7] was 29 (13.8) n (%), the “Overall clinical response at PTE: Clinical Failure” value [2, 8] was 8 (3.7) n (%) and the “Overall clinical response at PTE: Clinical Failure or Indeterminate” value [2, 8] was 37 (17.3) n (%). For the same molecule, the “Overall clinical response at PTE: Indeterminate” value [2, 8] was 29 (13.6) n (%), the “Overall clinical response at PTE: Clinical Success” value ([2]; Wound Infection, type of infection as randomized, investigator assessment, mITT) was 177 (82.7) n (%) and the “Overall Clinical Success at PTE, %” value ([2]; baseline pathogen Clostridium perfringens, investigator assessment) was “(80.0) %”. The “Overall Clinical Success at PTE, %” value ([2]; baseline pathogen Enterobacter cloacae, investigator assessment) was “(80.0) %”, the “Overall Clinical Success at PTE, %” value ([2]; baseline pathogen Enterococcus faecalis VSE, investigator assessment) was “(100.0) %” and the “Overall Clinical Success at PTE, %” value ([2]; baseline pathogen Enterococcus faecalis, investigator assessment) was “(100.0) %”. The “Overall Clinical Success at PTE, %” value ([2]; baseline pathogen Enterococcus faecium VSE, investigator assessment) was “(100.0) %”, the “Overall Clinical Success at PTE, %” value ([2]; baseline pathogen Enterococcus faecium, investigator assessment) was “(100.0) %” and the “Overall Clinical Success at PTE, %” value ([2]; baseline pathogen Escherichia coli, investigator assessment) was “(100.0) %”. The “Overall Clinical Success at PTE, %” value ([2]; baseline pathogen Finegoldia magna, investigator assessment) was “(100.0) %”, the “Overall Clinical Success at PTE, %” value ([2]; baseline pathogen Klebsiella pneumoniae, investigator assessment) was “(80.0) %” and the “Overall Clinical Success at PTE, %” value ([2]; baseline pathogen MRSA, investigator assessment) was “(85.6) %”. For the same molecule, the “Overall Clinical Success at PTE, %” value ([2]; baseline pathogen MSSA, investigator assessment) was “(80.8) %”, the “Overall Clinical Success at PTE, %” value ([2]; baseline pathogen Prevotella denticola, investigator assessment) was “(60.0) %” and the “Overall Clinical Success at PTE, %” value ([2]; baseline pathogen Prevotella melaninogenica, investigator assessment) was “(100.0) %”. For the same molecule, the “Overall Clinical Success at PTE, %” value ([2]; baseline pathogen Staphylococcus aureus, investigator assessment) was “(82.7) %”, the “Overall Clinical Success at PTE, %” value ([2]; baseline pathogen Staphylococcus lugdunensis, investigator assessment) was “(80.0) %” and the “Overall Clinical Success at PTE, %” value ([2]; baseline pathogen Streptococcus agalactiae, investigator assessment) was “(50.0) %”. For the same molecule, the “Overall Clinical Success at PTE, %” value ([2]; baseline pathogen Streptococcus anginosus group, investigator assessment) was “(86.0) %”, the “Overall Clinical Success at PTE, %” value ([2]; baseline pathogen Streptococcus anginosus, investigator assessment) was “(88.9) %” and the “Overall Clinical Success at PTE, %” value ([2]; baseline pathogen Streptococcus constellatus, investigator assessment) was “(88.9) %”. The “Overall Clinical Success at PTE, %” value ([2]; baseline pathogen Streptococcus intermedius, investigator assessment) was “(78.3) %”, the “Overall Clinical Success at PTE, %” value ([2]; baseline pathogen Streptococcus mitis, investigator assessment) was “(100.0) %” and the “Overall Clinical Success at PTE, %” value ([2]; baseline pathogen Streptococcus pyogenes, investigator assessment) was “(69.0) %”. The “Overall Clinical Success at PTE, %” value ([2]; baseline pathogen Streptococcus viridans group, investigator assessment) was “(100.0) %”, the “Overall clinical response at PTE: Clinical Failure” value ([2]; investigator assessment, CE-PTE) was 6 (2.1) n (%) and the “Overall clinical response at PTE: Clinical Success” value ([2]; investigator assessment, CE-PTE (N = 284 / N = 292)) was 278 (97.9) n (%). For the same molecule, the “Overall clinical response at PTE: Clinical Failure” value ([2]; investigator assessment, mITT) was 12 (3.3) n (%), the “Overall clinical response at PTE: Clinical Failure or Indeterminate” value ([2]; investigator assessment, mITT) was 57 (15.8) n (%) and the “Overall clinical response at PTE: Indeterminate” value ([2]; investigator assessment, mITT) was 45 (12.5) n (%). The “Overall clinical response at PTE: Clinical Success” value ([2]; investigator assessment, mITT (N = 360 per arm)) was 303 (84.2) n (%), the “Difference in Overall Clinical Success rate at PTE, omadacycline minus linezolid” value ([2]; mITT) was 3.3% and the “Difference (95% CI) in Overall Clinical Success rate at PTE” value (“Difference (95% CI)” below) [2, 3] was −4.5 (−14.0, 4.7). For the same molecule, the “Difference (95% CI)” value [2, 4] was −5.1 (−14.9, 4.3), the “Difference (95% CI)” value [2, 5] was 5.3 (−8.4, 19.2) and the “Difference (95% CI)” value [2, 6] was 5.3 (−8.4, 19.2). The “Difference (95% CI)” value [2, 7] was 5.7 (−2.0, 13.4) and the “Difference (95% CI)” value [2, 8] was 6.1 (−1.6, 13.7).
